Experimental data taken from PubChem BioAssay (NCI).
Values joined by “and” are separate entries in the source; they are usually repeats but may differ in a detail not shown here. Equal entries are not always repeated.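 Briefly, cells in 96-well plates were exposed to five compound concentrations for 48 h, and endpoints were estimated by linear interpolation. At the GI50, growth is halved. The concentration for full growth arrest is given as TGI.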

Experiments:
Assay in all cases: NCI anticancer screen, dose series, 48 h
[1] = system: M14 melanoma
[2] = system: HL-60(TB) leukemia
[3] = system: BT-549 breast
[4] = system: NCI/ADR-RES ovarian
[5] = system: CCRF-CEM leukemia
[6] = system: UACC-62 melanoma
[7] = system: HT29 colon
[8] = system: OVCAR-4 ovarian
[9] = system: NCI-H522 lung
[10] = system: SNB-75 CNS

| Structure (SMILES) | GI50 [1] | TGI [1] | GI50 [2] | TGI [2] | GI50 [3] | TGI [3] | GI50 [4] | TGI [4] | GI50 [5] | TGI [5] | GI50 [6] | TGI [6] | GI50 [7] | TGI [7] | GI50 [8] | TGI [8] | GI50 [9] | TGI [9] | TGI [10] | GI50 [10] |
| --- | --- | --- | --- | --- | --- | --- | --- | --- | --- | --- | --- | --- | --- | --- | --- | --- | --- | --- | --- | --- |
| NCCCC[C@@H]1NC(=O)[C@H](CC(=O)O)NC(=O)CNC(=O)[C@H](CCCN=C(N)N)NC(=O)[C@@H](N)CSSC[C@@H](C(=O)O)NC(=O)[C@H](CC(=O)O)NC(=O)[C@@H]2CCCN2C(=O)CNC1=O | > 100 µM | > 100 µM | > 100 µM | > 100 µM | > 100 µM | > 100 µM | > 100 µM | > 100 µM | > 100 µM | > 100 µM | > 100 µM | > 100 µM | > 100 µM | > 100 µM | > 100 µM | > 100 µM | > 100 µM | > 100 µM | – | – |
| CCOC(=O)Oc1cc2c(c(OC)c1OC)-c1ccc(OC)c(=O)cc1C(NC(C)=O)CC2 (centres undefined) | – | > 70.6 µM | – | 0.0298 µM | – | > 100 µM | – | > 57.9 µM | – | > 21.5 µM | – | 25.2 µM | – | 13.2 µM | – | > 100 µM | – | 0.0271 µM | > 16.9 µM | – |
| Cc1ccc(S(=O)(=O)SC(C)(C)C)cc1 | – | > 88.8 µM | – | 40.7 µM | – | 42.3 µM | – | 90.4 µM | – | 39.2 µM | – | 48.6 µM | – | 34.8 µM | – | 46.5 µM | – | 32.3 µM | > 100 µM | – |
| CC(C)(C)c1ccc(Oc2ccc(N)cn2)cc1 | 56.4 µM | > 100 µM | 0.545 µM | 17.4 µM | 11.3 µM | 99.8 µM | 51.6 µM | > 100 µM | 1.06 µM | > 100 µM | 61.3 µM | > 100 µM | 47.2 µM | > 100 µM | 32.8 µM | > 100 µM | 9.46 µM | > 100 µM | > 100 µM | 10.9 µM |
| CCN(CC)CCCNc1cc(OC)cc2nc3cc(Cl)ccc3nc12 | 1.61 µM | 3.02 µM | 2.22 µM | 6.66 µM | 4.95 µM | 15.3 µM | 1.64 µM | 8.52 µM | 2.52 µM | 11.1 µM | 2.19 µM | 4.25 µM | 0.399 µM | 1.87 µM | 1.67 µM | 3.51 µM | 1.34 µM | 3.08 µM | 4.35 µM | 1.7 µM |
| CC1C(C)N(C(=O)CCl)c2ccccc2N1C(=O)CCl (centres undefined) | 0.597 µM | 2.2 µM | 0.211 µM | 0.535 µM | 0.849 µM | 2.41 µM | 0.784 µM | 13.3 µM | 0.15 µM | 0.629 µM | 0.624 µM | 2.1 µM | 0.225 µM | 0.523 µM | 0.499 µM | 1.73 µM | 0.162 µM | 0.347 µM | 2.84 µM | 1.36 µM |
| O=S(=O)(NNc1ccccc1)c1ccccc1 | – | 17.3 µM | – | 13.5 µM | – | 44.2 µM | – | 36.1 µM | – | 50 µM | – | 30 µM | – | 27.2 µM | – | 31.5 µM | – | 31.1 µM | > 100 µM | – |
| CNC(=O)c1cc(Oc2ccc(NC(=O)Nc3ccc(Cl)c(C(F)(F)F)c3)c(F)c2)ccn1 | 1.38 µM and 1.28 µM | 6.75 µM and 8.81 µM | 0.518 µM and 0.539 µM | 2.68 µM and 4.1 µM | 2.56 µM and 2.67 µM | 8.64 µM and 9.09 µM | 2.67 µM and 2.44 µM | 9.81 µM and > 10 µM | 2.24 µM and 2.51 µM | 7.01 µM and 8.88 µM | 0.98 µM | 4.73 µM | 1.82 µM and 1.43 µM | 8.83 µM and > 10 µM | 2.56 µM and 2.74 µM | 19.7 µM and > 10 µM | 1.73 µM and 1.7 µM | 5.84 µM and 6.43 µM | 7.01 µM and > 10 µM | 1.71 µM and 1.67 µM |
| COc1ccc2c(c1)c(-c1nc(-c3c[nH]c4ccncc34)cs1)cn2C | 1.78 µM | 3.26 µM | 1.68 µM | 3.5 µM | 1.81 µM | 3.45 µM | 1.76 µM | 3.38 µM | 1.83 µM | 3.64 µM | 1.82 µM | 3.35 µM | 1.2 µM | 2.62 µM | 1.89 µM | 3.71 µM | 1.65 µM | 3.25 µM | 2.91 µM | 1.52 µM |
| O=C(/C=C\c1ccc([N+](=O)[O-])cc1)c1ccccc(=O)c1O | – | 6.5 µM | – | 1.63 µM | – | 6.17 µM | – | 2.97 µM | – | 0.532 µM | – | 3.13 µM | – | 3.85 µM | – | 18.1 µM | – | 6.63 µM | 4.75 µM | – |
| CNC(=O)c1c(NC(=O)c2ccc(C(C)(C)C)cc2)sc2c1CCC(=O)C2 | 0.346 µM | 1.79 µM | 0.261 µM | 1.58 µM | 0.352 µM | 1.68 µM | 0.313 µM | 1.29 µM | 0.0886 µM | > 20.1 µM | 0.262 µM | 1.28 µM | 0.263 µM | 1.56 µM | 0.195 µM | 0.991 µM | 0.197 µM | 1.41 µM | 1.44 µM | 0.343 µM |
| Cc1ccc(/C=N/Nc2nc(Nc3ccccc3)nc(-n3nc(C)cc3C)n2)cc1 | 2.47 µM | 10.8 µM | 2.51 µM | 84.8 µM | 4 µM | 34.1 µM | 2.53 µM | 8.67 µM | 3.72 µM | > 100 µM | 4.44 µM | 24.2 µM | 3.55 µM | > 100 µM | 3.06 µM | 25.5 µM | 2.67 µM | 6.48 µM | > 100 µM | 10.9 µM |
| CC1=C(c2ccccc2)C(O)(c2ccccc2)C(C)C1=O (centres undefined) | 4.72 µM | 33.7 µM | 16.6 µM | 87.4 µM | 14.6 µM | 55.4 µM | 2.95 µM | 9.94 µM | 23.7 µM | > 100 µM | 9.97 µM | > 100 µM | 10.5 µM | > 100 µM | 24.3 µM | > 100 µM | – | – | 42.8 µM | 10.7 µM |
| Cc1ccccc1NC(=O)c1sc2nc(C)c(C(=O)/C=C/c3ccccc3)cc2c1N | 1.58 µM | 6.12 µM | 0.922 µM | 2.72 µM | 1.33 µM | 5.28 µM | 1.5 µM | > 50 µM | 1.5 µM | > 50 µM | 0.9 µM | 2.04 µM | 1.18 µM | 3.21 µM | 1.42 µM | > 50 µM | 1.15 µM | 3.42 µM | – | – |
